The values below come from article PMC7949139, “The molecular basis of OH-PCB estrogen receptor activation” (The Journal of Biological Chemistry, 2021).

Where a chain is given by its changes, count along the chain named. Read-outs that look alike come from different tables or passages of the source. Where only a bound is given, the exact number is not on record here.

Experiment [1] has as its system estrogen receptor (ER) activation in (-) SULT1E1 control Ishikawa cells. In words: Estrogen receptor activation (alkaline phosphatase activity), control strain. Type of experiment: cell-based. The conditions noted are these: Homo sapiens, Control cell line, OH-PCB titration at 10 nM E2 (footnote a), NE = No Effect, read-out: Ligand EC50, ER activation. The method, then: (§1) pcDNA 3.1 constructs harboring either the SULT1E1 WT or double mutant (F75A/F80A) coding regions were generated using Gibson Assembly ([74]). The vectors were linearized using BGIII. Ishikawa cells were grown at 37 °C ± 2 deg. C in growth medium (MEM media containing 10% v/v FBS). At confluence, the cells were washed (3×) with PBS media before coating with an Opti-MEM solution containing a linearized construct (50 ng μg^−1) and lipofectamine (2.5 units ml^−1). After 24 h at 37 °C ± 2 deg. C, cells were washed (3×) with PBS before adding growth medium containing neomycin (400 μg ml^−1) to select transfectants. Selective growth medium was replenished every 48 h until single colonies could be isolated (∼3–6 weeks). Single colonies were transferred using trypsin digest (0.05%) to 12-well plates and grown at 37 °C ± 2 deg. C to confluence for further experimentation and storage.
(§2) Transfected Ishikawa cells were grown at 37 °C ± 2 deg. C to 60 to 70% confluency in MEM containing 10% v/v FBS. Cells were then transferred to 96-well tissue culture plates and grown at 37 °C ± 2 deg. C to 80% confluency in MEM containing 10% v/v charcoal filtered FBS. The plate was then washed with PBS and grown at 37 °C ± 2 deg. C for 24 h in MEM without FBS. Estradiol (0–3.0 μM) and OH-PCB (0–1.0 μM) solubilized in neat DMSO were added and cells were incubated at 37 °C ± 2 deg. C for 5 days. The final concentrations of DMSO were ≤0.10%. Cells were then washed twice with PBS before adding pNpp (5.0 mM) in PBS ([75]). Following incubation with pNpp for 3 h at 25 °C ± 2 deg. C, wells were read at 405 nm using a Synergy HT BioTek Plate Reader.

The target in the next experiment is T1, SULT1E1 (Homo sapiens, UniProt P49888).
T1 construct: E. coli codon-optimized SULT1E1 coding region inserted into the PreScission Protease cleavage site; His/GST/MBP triple tag (N, cleaved yes); made in house; host or cells: E. coli BL21(DE3)
T1 sequence (P49888 1-294): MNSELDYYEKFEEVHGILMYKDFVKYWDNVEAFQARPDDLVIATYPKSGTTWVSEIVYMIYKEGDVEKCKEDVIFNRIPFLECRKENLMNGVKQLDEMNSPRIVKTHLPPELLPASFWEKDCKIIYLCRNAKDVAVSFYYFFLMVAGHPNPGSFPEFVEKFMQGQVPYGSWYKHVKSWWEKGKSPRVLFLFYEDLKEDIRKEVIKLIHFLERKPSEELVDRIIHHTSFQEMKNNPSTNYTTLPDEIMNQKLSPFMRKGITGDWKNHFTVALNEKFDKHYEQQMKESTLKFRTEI
In words: Equilibrium binding studies (SULT1E1 intrinsic fluorescence). The conditions noted are these: for Kd: pH 7.4, 25 °C, spread = one SD. As to the method:
The binding of inhibitors to WT and mutant SULT1E1 was monitored via ligand-induced changes in the intrinsic fluorescence of the enzyme (λex= 290 nm, λem= 340 nm) ([4]). […] C. Titrations were performed in triplicate and the averaged data were least-squares fit to the following quadratic, single-site binding model: Io − ΔI∙(([L]+Etot + Kd) − [([L]+Etot + Kd)^2 − (4∙[L]∙Etot)]^1/2)/2∙Etot, where Io and ΔI represent fluorescent intensity at zero and infinite [L].

A further experiment addresses T2, SULT1E1 F80A/F75A (Homo sapiens, UniProt P49888, F75A/F80A).
T2 construct: E. coli codon-optimized SULT1E1 coding region inserted into the PreScission Protease cleavage site; His/GST/MBP triple tag (N, cleaved yes); made in house; host or cells: E. coli BL21(DE3)
T2 sequence (P49888 1-294 F75A/F80A): T1 sequence (P49888 1-294) with F75A, F80A
In words: Initial-rate studies (1-HP sulfonation; OH-PCB1 inhibition), double mutant. Type of experiment: biochemical. The method, then:
(§3) C. Reaction progress was monitored via the fluorescence change associated with 1-HP sulfonation (λex = 325 nm, λem = 370 nm ([51], [52])). Initial rates were measured during conversion to product of ≤5% of the concentration-limiting substrate consumed at the reaction endpoint. Velocities were determined in triplicate. Km and kcat were obtained by (1/v^4)-weighted least-squares fitting of the averaged data in double-reciprocal space (i.e., 1/v versus 1/[S]) ([66], [67]).
(§4) Inhibition studies were performed as described above except: 1-HP was fixed (2.0 μM, 100 × Km), OH-PCBs were added (0.20–20 × Ki), and SULT1E1 was 0.20 nM (active sites). Ki was determined by least-squares fitting to a noncompetitive inhibition model ([66], [67]).

Experiment [2] relates to estrogen receptor (ER) activation in Ishikawa cells expressing WT SULT1E1. In words: cells. Format: cell-based, human. The settings on record: Homo sapiens, Ishikawa; WT cell line; OH-PCB titration at 10 nM E2 (footnote a); parentheses = one SD; read-out: Ligand EC50, ER activation. The method, then:
as §1, §2

The subject of experiment [3] is estrogen receptor (ER) activation in Ishikawa cells expressing F75A/F80A SULT1E1. In words: cells. Type of experiment: cell-based, human. The conditions noted are these: Homo sapiens, Ishikawa; F75A/F80A cell line; OH-PCB titration at 10 nM E2 (footnote a); NE = No Effect; read-out: Ligand EC50, ER activation. As to the method: as §1, §2
The next experiment has as its target T3, WT SULT1E1 (Homo sapiens, UniProt P49888).
T3 construct: E. coli codon-optimized SULT1E1 coding region inserted into the PreScission Protease cleavage site; His/GST/MBP triple tag (N, cleaved yes); made in house; host or cells: E. coli BL21(DE3)
T3 sequence (P49888 1-294): T1 sequence (P49888 1-294)
In words: Initial-rate studies (1-HP sulfonation; OH-PCB inhibition), WT enzyme. Format: biochemical. The method, then: as §3, §4

For `Oc1ccc(-c2c(Cl)cccc2Cl)cc1` [OH-PCB1, 4ʹ-OH-2,6-dichlorobiphenol], the results for the concentration giving a half-maximal response (EC50) in experiment [1], in experiment [2] and in experiment [3] were > 1000 nM, 38 nM and > 1000 nM, respectively. In addition, the Kd is 62 nM at SULT1E1 (E2 4.0 μM (higher partner concentration), PAP 300 μM, read-out: Kd, ligand binding to enzyme species E⋅PAP⋅E2); 66 nM at SULT1E1 (E2 4.0 μM, no PAP, read-out: Kd, ligand binding to enzyme species E⋅E2); 780 nM at SULT1E1 (PAP 300 μM, read-out: Kd, ligand binding to enzyme species E⋅PAP); 750 nM at SULT1E1 (free enzyme E, read-out: Kd, ligand binding to enzyme species E). The “fold tighter binding in the presence of the partner ligand (OH-PCB1/E2 interaction)” value at SULT1E1 (OH-PCB1: E⋅E2 versus E, E2: E⋅PAP⋅OH-PCB1 versus E⋅PAP) is on record as ~12 fold. Moreover, the “Fold Effect = Ki OH-PCB1/Ki OH-PCB1 WT” value on SULT1E1 F80A/F75A is 113; on WT SULT1E1 (WT), 1.0. Also, the Ki on SULT1E1 F80A/F75A (noncompetitive inhibition model, parentheses = one SD) was 6.8 µM; at WT SULT1E1 (WT SULT1E1, Table 1, parentheses = one SD, read-out: Ki OH-PCB1), 60 nM.
